Reference: patent publication US8003082B2, “Photostable organic sunscreen composition” (Merck Patent GmbH, priority 2003, dated 2011)

Legend:
[1] = Diphenylpicryl Hydrazide (DPPH) antioxidant test; assay type: biochemical; details: DPPH test method
Protocol: Di-2-ethylhexyl-3,5-dimethoxy-4-hydroxy-benzalmalonate is a yellow viscous liquid having a λmax at 332 nm (MeOH, εmax 18,600 cm^−1 mol^−1) or 337 nm (EtOH:H2O/70:30, εmax 19,840 cm^−1 mol^−1).
A DPPH concentrate (2.5×) of 25 mg of 1,1-Diphenyl-2-Picyrl-Hydrazyl ACS#1898-66-4 (Sigma #D-9132, lot 99H3601) dissolved in 250 mL ethanol (USP), is prepared fresh on the measurement date. A DPPH working solution is then prepared by diluting 100 mL of this concentrate to a final volume of 250 mL (100 μM/mL). A blank 13×100 mm borosilicate glass screw top tube of ethanol (USP) is used to zero the spectrometer (Milton Roy, Spectronic 20+) at 517 nm and a control tube of DPPH working solution is measured under identical conditions, and taken as 0% activity. […] After 20 minutes, the absorbance of each sample is read at 517 nm.
The percent reducing activity (% RA) is calculated using the following equation: […]
Where A(0) is the absorbance value of the DPPH working solution at 517 nm zeroed against an ethanol blank and A(20) is the absorbance at 517 nm, 20 minutes after combining the antioxidant with the DPPH working solution.
The concentration of antioxidant (mg/ml) in the final assay mixture is calculated based on the dilution of respective aliquots of each compound in the final assay volume and % RA tabulated and plotted as percent activity at each concentration in the dilution series: […]

[2] = Photostabilization of Avobenzone in formulation, thin films between glass slides under UV-B light, loss in absorption; assay type: physicochemical
Protocol: Photostabilization of Avobenzone (in formulation) was performed using thin films (about 50-100μ thick, transmission signals in the non-absorbing regions must be above 85%) of formulated materials placed between two glass slides and then irradiated under UV-B light (Q-U-V Accelerated Weather Tester, The Q Panel Company). Photodegradation of Avobenzone was calculated from the relative loss in absorption of Avobenzone in formulated products before and after irradiation. 1 hour irradiation under UV-B light is equal to about 1.4 MED (minimal erythemal dose). A Beckman Coulter DU-640 spectrophotometer at a scan speed of 120 nm/min was used for this study. All spectra were recorded from 200 to 600 nm.

[3] = In vitro critical wavelength and SPF; details: Avobenzone (2%) in the presence of HMS (6%) and Oxynex ST (2%)
Protocol: The target SPF range can be achieved with a combination of both inorganic and organic chromophoric compounds. SPF is determined by techniques well known in the art, on human skin as described in the Federal Register, Aug. 25, 1978, Vol. 43, No. 166, pages 38259-38269 (Sunscreen Drug Products for Over-The-Counter Human Use, Food and Drug Administration). SPF values can also be approximated using in-vitro models as described, for example, in J. Soc. Cosmet. Chem. 44:127-133 (May/June 1989).

[4] = Solubility of Avobenzone in Oxynex ST + HMS on storage; assay type: physicochemical; set-up: key: Ppt = precipitate
Protocol: The solubility of Avobenzone was tested in various ratios of Oxynex® ST and HMS.

[5] = Solubility of Avobenzone in Oxynex ST + OMC on storage; assay type: physicochemical; set-up: key: Ppt = precipitate

CCCCC(CC)COC(=O)C(=Cc1cc(OC)c(O)c(OC)c1)C(=O)OCC(CC)CCCC (stereo not drawn) [Oxynex ST, Di-(2-Ethylhexyl)-3,5-dimethoxy-4-hydroxy benzylidene malonate]
antioxidant activity (IC50) [1]: 85 ± 8 µg/mL

COc1ccc(C(=O)CC(=O)c2ccc(C(C)(C)C)cc2)cc1 [Avobenzone, 4-(tert-butyl)-4′-methoxydibenzoylmethane]
Avobenzone stability [2]: 24%
SPF [3]: > 30
critical wavelength [3]: appropriate
Solubility of Avobenzone in the Oxynex ® ST Photostabilizer + HMS ([4]; Avobenzone/Oxynex ST/HMS 15/15/70, storage 4° C., 1 week): Clear
Solubility of Avobenzone in the Oxynex ® ST Photostabilizer + HMS ([4]; Avobenzone/Oxynex ST/HMS 15/15/70, storage 4° C., 2 weeks): Crystal?
Solubility of Avobenzone in the Oxynex ® ST Photostabilizer + HMS ([4]; Avobenzone/Oxynex ST/HMS 15/15/70, storage 4° C., 3 weeks): Crystal?
Solubility of Avobenzone in the Oxynex ® ST Photostabilizer + HMS ([4]; Avobenzone/Oxynex ST/HMS 15/15/70, storage 4° C., 6 weeks): Ppt
Solubility of Avobenzone in the Oxynex ® ST Photostabilizer + HMS ([4]; Avobenzone/Oxynex ST/HMS 15/15/70, storage 4° C., 24 hr): Clear
Solubility of Avobenzone in the Oxynex ® ST Photostabilizer + HMS ([4]; Avobenzone/Oxynex ST/HMS 15/15/70, storage RT, 1 week): Clear
Solubility of Avobenzone in the Oxynex ® ST Photostabilizer + HMS ([4]; Avobenzone/Oxynex ST/HMS 15/15/70, storage RT, 2 weeks): Clear
Solubility of Avobenzone in the Oxynex ® ST Photostabilizer + HMS ([4]; Avobenzone/Oxynex ST/HMS 15/15/70, storage RT, 3 weeks): Clear
Solubility of Avobenzone in the Oxynex ® ST Photostabilizer + HMS ([4]; Avobenzone/Oxynex ST/HMS 15/15/70, storage RT, 6 weeks): Clear
Solubility of Avobenzone in the Oxynex ® ST Photostabilizer + HMS ([4]; Avobenzone/Oxynex ST/HMS 15/15/70, storage RT, 24 hr): Clear
Solubility of Avobenzone in the Oxynex ® ST Photostabilizer + HMS ([4]; Avobenzone/Oxynex ST/HMS 20/20/60, storage 4° C., 1 week): Clear
Solubility of Avobenzone in the Oxynex ® ST Photostabilizer + HMS ([4]; Avobenzone/Oxynex ST/HMS 20/20/60, storage 4° C., 2 weeks): Crystal?
Solubility of Avobenzone in the Oxynex ® ST Photostabilizer + HMS ([4]; Avobenzone/Oxynex ST/HMS 20/20/60, storage 4° C., 3 weeks): Crystal?
Solubility of Avobenzone in the Oxynex ® ST Photostabilizer + HMS ([4]; Avobenzone/Oxynex ST/HMS 20/20/60, storage 4° C., 6 weeks): Ppt
Solubility of Avobenzone in the Oxynex ® ST Photostabilizer + HMS ([4]; Avobenzone/Oxynex ST/HMS 20/20/60, storage 4° C., 24 hr): Clear
Solubility of Avobenzone in the Oxynex ® ST Photostabilizer + HMS ([4]; Avobenzone/Oxynex ST/HMS 20/20/60, storage RT, 1 week): Clear
Solubility of Avobenzone in the Oxynex ® ST Photostabilizer + HMS ([4]; Avobenzone/Oxynex ST/HMS 20/20/60, storage RT, 2 weeks): Clear
Solubility of Avobenzone in the Oxynex ® ST Photostabilizer + HMS ([4]; Avobenzone/Oxynex ST/HMS 20/20/60, storage RT, 3 weeks): Clear
Solubility of Avobenzone in the Oxynex ® ST Photostabilizer + HMS ([4]; Avobenzone/Oxynex ST/HMS 20/20/60, storage RT, 6 weeks): Clear
Solubility of Avobenzone in the Oxynex ® ST Photostabilizer + HMS ([4]; Avobenzone/Oxynex ST/HMS 20/20/60, storage RT, 24 hr): Clear
Solubility of Avobenzone in the Oxynex ® ST Photostabilizer + HMS ([4]; Avobenzone/Oxynex ST/HMS 25/25/50, storage 4° C., 1 week): Ppt
Solubility of Avobenzone in the Oxynex ® ST Photostabilizer + HMS ([4]; Avobenzone/Oxynex ST/HMS 25/25/50, storage 4° C., 2 weeks): Ppt
Solubility of Avobenzone in the Oxynex ® ST Photostabilizer + HMS ([4]; Avobenzone/Oxynex ST/HMS 25/25/50, storage 4° C., 3 weeks): Ppt
Solubility of Avobenzone in the Oxynex ® ST Photostabilizer + HMS ([4]; Avobenzone/Oxynex ST/HMS 25/25/50, storage 4° C., 6 weeks): Ppt
Solubility of Avobenzone in the Oxynex ® ST Photostabilizer + HMS ([4]; Avobenzone/Oxynex ST/HMS 25/25/50, storage 4° C., 24 hr): Clear
Solubility of Avobenzone in the Oxynex ® ST Photostabilizer + HMS ([4]; Avobenzone/Oxynex ST/HMS 25/25/50, storage RT, 1 week): Clear
Solubility of Avobenzone in the Oxynex ® ST Photostabilizer + HMS ([4]; Avobenzone/Oxynex ST/HMS 25/25/50, storage RT, 2 weeks): Crystal?
Solubility of Avobenzone in the Oxynex ® ST Photostabilizer + HMS ([4]; Avobenzone/Oxynex ST/HMS 25/25/50, storage RT, 3 weeks): Ppt
Solubility of Avobenzone in the Oxynex ® ST Photostabilizer + HMS ([4]; Avobenzone/Oxynex ST/HMS 25/25/50, storage RT, 6 weeks): Ppt
Solubility of Avobenzone in the Oxynex ® ST Photostabilizer + HMS ([4]; Avobenzone/Oxynex ST/HMS 25/25/50, storage RT, 24 hr): Clear
Solubility of Avobenzone in the Oxynex ® ST Photostabilizer + HMS ([4]; Avobenzone/Oxynex ST/HMS 30/30/40, storage 4° C., 1 week): Ppt
Solubility of Avobenzone in the Oxynex ® ST Photostabilizer + HMS ([4]; Avobenzone/Oxynex ST/HMS 30/30/40, storage 4° C., 2 weeks): Ppt
Solubility of Avobenzone in the Oxynex ® ST Photostabilizer + HMS ([4]; Avobenzone/Oxynex ST/HMS 30/30/40, storage 4° C., 3 weeks): Ppt
Solubility of Avobenzone in the Oxynex ® ST Photostabilizer + HMS ([4]; Avobenzone/Oxynex ST/HMS 30/30/40, storage 4° C., 6 weeks): Ppt
Solubility of Avobenzone in the Oxynex ® ST Photostabilizer + HMS ([4]; Avobenzone/Oxynex ST/HMS 30/30/40, storage 4° C., 24 hr): Clear
Solubility of Avobenzone in the Oxynex ® ST Photostabilizer + HMS ([4]; Avobenzone/Oxynex ST/HMS 30/30/40, storage RT, 1 week): Ppt
Solubility of Avobenzone in the Oxynex ® ST Photostabilizer + HMS ([4]; Avobenzone/Oxynex ST/HMS 30/30/40, storage RT, 2 weeks): Ppt
Solubility of Avobenzone in the Oxynex ® ST Photostabilizer + HMS ([4]; Avobenzone/Oxynex ST/HMS 30/30/40, storage RT, 3 weeks): Ppt
Solubility of Avobenzone in the Oxynex ® ST Photostabilizer + HMS ([4]; Avobenzone/Oxynex ST/HMS 30/30/40, storage RT, 6 weeks): Ppt
Solubility of Avobenzone in the Oxynex ® ST Photostabilizer + HMS ([4]; Avobenzone/Oxynex ST/HMS 30/30/40, storage RT, 24 hr): Clear
Solubility of Avobenzone in the Oxynex ® ST Photostabilizer + OMC ([5]; Avobenzone/Oxynex ST/OMC 20/20/60, storage 4° C., 1 week): Clear
Solubility of Avobenzone in the Oxynex ® ST Photostabilizer + OMC ([5]; Avobenzone/Oxynex ST/OMC 20/20/60, storage 4° C., 2 weeks): Crystal?
Solubility of Avobenzone in the Oxynex ® ST Photostabilizer + OMC ([5]; Avobenzone/Oxynex ST/OMC 20/20/60, storage 4° C., 48 hr): Clear
Solubility of Avobenzone in the Oxynex ® ST Photostabilizer + OMC ([5]; Avobenzone/Oxynex ST/OMC 20/20/60, storage RT, 1 week): Clear
Solubility of Avobenzone in the Oxynex ® ST Photostabilizer + OMC ([5]; Avobenzone/Oxynex ST/OMC 20/20/60, storage RT, 2 weeks): Clear
Solubility of Avobenzone in the Oxynex ® ST Photostabilizer + OMC ([5]; Avobenzone/Oxynex ST/OMC 20/20/60, storage RT, 48 hr): Clear
Solubility of Avobenzone in the Oxynex ® ST Photostabilizer + OMC ([5]; Avobenzone/Oxynex ST/OMC 25/25/50, storage 4° C., 1 week): Ppt
Solubility of Avobenzone in the Oxynex ® ST Photostabilizer + OMC ([5]; Avobenzone/Oxynex ST/OMC 25/25/50, storage 4° C., 2 weeks): Ppt
Solubility of Avobenzone in the Oxynex ® ST Photostabilizer + OMC ([5]; Avobenzone/Oxynex ST/OMC 25/25/50, storage 4° C., 48 hr): Clear
Solubility of Avobenzone in the Oxynex ® ST Photostabilizer + OMC ([5]; Avobenzone/Oxynex ST/OMC 25/25/50, storage RT, 1 week): Clear
Solubility of Avobenzone in the Oxynex ® ST Photostabilizer + OMC ([5]; Avobenzone/Oxynex ST/OMC 25/25/50, storage RT, 2 weeks): Crystal?
Solubility of Avobenzone in the Oxynex ® ST Photostabilizer + OMC ([5]; Avobenzone/Oxynex ST/OMC 25/25/50, storage RT, 48 hr): Clear
Solubility of Avobenzone in the Oxynex ® ST Photostabilizer + OMC ([5]; Avobenzone/Oxynex ST/OMC 30/20/50, storage 4° C., 48 hr): Few
Solubility of Avobenzone in the Oxynex ® ST Photostabilizer + OMC ([5]; Avobenzone/Oxynex ST/OMC 30/20/50, storage RT, 48 hr): Few

CCCCC(CC)COC(=O)c1ccc2cc(C(=O)OCC(CC)CCCC)ccc2c1 (stereo not drawn) [TQ, Di-2-ethylhexyl-napthylate]
stabilization of Avobenzone ([2]; combined with Homosalate, ratio (w/w) 2:6:2): failed to stabilize
effect on the photostabilization of Avobenzone ([2]; photostabilizer used alone): practically no effect
